Reference: patent US11427548B2 (Arvinas Operations, Inc., priority 2015, dated 2022)
Like-named read-outs stand apart in the source and are kept apart here. Blank lines part the entries; values can stand above or below the molecule they belong to.

Molecular target: T1, Androgen Receptor (Homo sapiens, UniProt P10275)
T1 construct: endogenous in cells; host or cells: VCaP cells
T1 sequence (P10275 1-920): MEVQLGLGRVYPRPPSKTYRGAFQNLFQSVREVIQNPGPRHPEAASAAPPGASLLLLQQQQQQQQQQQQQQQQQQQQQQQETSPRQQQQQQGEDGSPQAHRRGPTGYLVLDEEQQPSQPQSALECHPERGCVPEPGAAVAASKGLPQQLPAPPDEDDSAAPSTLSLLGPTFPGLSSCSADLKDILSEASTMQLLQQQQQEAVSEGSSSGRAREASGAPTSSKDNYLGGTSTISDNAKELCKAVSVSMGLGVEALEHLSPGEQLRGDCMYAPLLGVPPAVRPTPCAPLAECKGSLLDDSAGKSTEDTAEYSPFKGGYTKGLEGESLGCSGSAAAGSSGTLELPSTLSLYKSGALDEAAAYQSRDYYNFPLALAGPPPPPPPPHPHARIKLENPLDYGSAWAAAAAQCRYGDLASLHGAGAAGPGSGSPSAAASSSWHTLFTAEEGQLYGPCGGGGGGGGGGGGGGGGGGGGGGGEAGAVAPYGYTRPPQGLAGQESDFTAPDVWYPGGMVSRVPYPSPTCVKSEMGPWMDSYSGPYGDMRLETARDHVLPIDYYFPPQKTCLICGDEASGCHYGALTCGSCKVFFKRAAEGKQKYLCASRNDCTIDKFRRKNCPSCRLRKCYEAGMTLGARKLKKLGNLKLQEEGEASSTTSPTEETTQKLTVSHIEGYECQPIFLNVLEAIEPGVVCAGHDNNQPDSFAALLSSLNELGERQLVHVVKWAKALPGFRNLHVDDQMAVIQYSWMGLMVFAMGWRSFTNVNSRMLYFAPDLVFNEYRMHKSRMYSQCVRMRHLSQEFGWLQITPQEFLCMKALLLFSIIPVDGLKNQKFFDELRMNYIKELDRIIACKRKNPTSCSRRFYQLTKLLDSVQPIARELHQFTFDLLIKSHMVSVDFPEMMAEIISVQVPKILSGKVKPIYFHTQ
Test: Androgen Receptor ELISA assay (PathScan AR ELISA) in VCaP cells: AR degradation, Dmax and DC50
Type: cell-based
Summary of the method: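 After 24 h exposure of VCaP cells (charcoal-stripped serum, 0.1 nM R1881 agonist, 0.1% DMSO) to seven half-log compound concentrations, residual AR in lysates was measured by PathScan ELISA (TMB absorbance, 450 nm). Cells were plated at 30,000/well and grown at least 3 days beforehand.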

[1] = VCaP cells; Table 35; read-out: VCaP DC50
[2] = VCaP, VCaP cells; Table 35; read-out: VCaP Dmax (%)
[3] = VCaP cells; Table 36; read-out: VCaP DC50
[4] = VCaP, read-out: VCaP Dmax (%), VCaP cells; Table 36
[5] = VCaP, VCaP cells; Table 36; read-out: VCaP Dmax (%)
[6] = read-out: VCaP DC50; VCaP cells; Table 34

Compound: Cc1ncsc1-c1ccc([C@H](C)NC(=O)[C@@H]2C[C@@H](O)CN2C(=O)[C@@H](NC(=O)c2cc3ccc(OC4CN(c5ncc(C(=O)N[C@H]6C(C)(C)[C@H](Oc7ccc(C#N)c(Cl)c7)C6(C)C)cn5)C4)cc3o2)C(C)(C)C)cc1 [Example 422]
DC50 [1]: < 50 nM | Dmax [2]: > 71%

Compound: Cc1ncsc1-c1ccc([C@H](C)NC(=O)[C@@H]2CC3CN2C(=O)C(C(C)(C)C)NC(=O)COCCCOCCC(CCOc2ccc(N4C(=S)N(c5ccc(C#N)c(C(F)(F)F)c5)C(=O)C4(C)C)cc2)OC(=O)CC/C=C/CCC(=O)O3)cc1 (stereo partly drawn) [Example 620, (3S,25R,27S,E)-3-(tert-butyl)-14-(2-(4-(3-(4-cyano-3-(trifluoroemthyl)phenyl)-5,5-dimethyl-4-oxo-2-thioxoimidazolidin-1-yl)phenoxy)ethyl)-N-((S)-1-(4-(4-methylthiazol-5-yl)phenyl)ethyl)-2,5,16,23-tetraoxo-7,11,15,24-tetraoxa-1,4-diazabicyclo[23.2.1]oct-acos-19-ene-27-carboxamide]
DC50 (read-out: VCaP DC50; VCaP cells; Table 36): > 501 nM

Compound: Cc1ncsc1-c1ccc([C@H](C)NC(=O)[C@@H]2C[C@@H](OC(=O)OC(C)C)CN2C(=O)[C@@H](NC(=O)COCCCCCNc2ccc(C(=O)N[C@H]3C(C)(C)[C@H](Oc4ccc(C#N)c(Cl)c4)C3(C)C)cc2)C(C)(C)C)cc1 [Example 652, (3R,5S)-1-((S)-2-(2-((5-((4-(((1r,3r)-3-(3-chloro-4-cyanophenoxy)-2,2,4,4-tetramethylcyclobutyl)carbamoyl)phenyl)amino)pentyl)oxy)acetamido)-3,3-dimethylbutanoyl)-5-(((S)-1-(4-(4-methylthiazol-5-yl)phenyl)ethyl)carbam-oyl)pyrrolidin-3-yl isopropyl carbonate]
DC50 [3]: > 501 nM | Dmax [5]: < 25%

Compound: CC(C)(C)[C@H](NC(=O)COCCCCOc1ccc(-c2ccc(N3C(=S)N(c4cnc(C#N)c(C(F)(F)F)c4)C(=O)C3(C)C)cc2)cc1)C(=O)N1C[C@H](O)C[C@H]1C(=O)NCc1ccc(-c2cnco2)cc1 [Example 190, (2S,4R)-1-[(2S)-2-(2-{4-[4-(4-{3-[6-cyano-5-(trifluoromethyl)pyridin-3-yl]-5,5-dimethyl-4-oxo-2-sulfanylideneimidazolidin-1-yl}phenyl)phenoxy]butoxy}acetamido)-3,3-dimethylbutanoyl]-4-hydroxy-N-{[4-(1,3-oxazol-5-yl)phenyl]methyl}pyrrolidine-2-carboxamide]
DC50 (VCaP cells; concentration that caused 50% Androgen Receptor degradation; read-out: VCaP DC50): < 50 nM | Dmax (VCaP, VCaP cells; highest percentage of Androgen Receptor degradation; read-out: VCaP Dmax (%)): > 71%

Compound: CC(C)(C)[C@H](NC(=O)COCCCCOCCCCOc1ccc(N2C(=S)N(c3ccc(C#N)c(Cl)c3)C(=O)C2(C)C)cc1)C(=O)N1C[C@H](O)C[C@H]1C(=O)NCc1ccc(-c2cnco2)cc1 [Example 346]
Dmax (VCaP, read-out: VCaP Dmax (%)): 51 to 70% | DC50 [6]: < 50 nM

Compound: Cc1ncsc1-c1ccc([C@H](C)NC(=O)[C@@H]2C[C@@H](O)CN2C(=O)[C@@H](NC(=O)COCCCCOc2ccc(-c3ccc(N4C(=S)N(c5ccc(C#N)c(C(F)(F)F)c5)C(=O)C4(C)C)cc3)cc2)C(C)(C)C)cc1 [Example 95, (2S,4R)-1-[(2S)-2-(2-{4-[4-(4-{3-[4-cyano-3-(trifluoromethyl)phenyl]-5,5-dimethyl-4-oxo-2-sulfanylideneimidazolidin-1-yl}phenyl)phenoxy]butoxy}acetamido)-3,3-dimethylbutanoyl]-4-hydroxy-N-[(1S)-1-[4-(4-methyl-1,3-thiazol-5-yl)phenyl]ethyl]pyrrolidine-2-carboxamide]
Dmax (VCaP, read-out: VCaP Dmax (%)): > 71% | DC50 (read-out: VCaP DC50; concentration that caused 50% Androgen Receptor degradation, VCaP cells (Table 32)): < 50 nM

Compound: Cc1ncsc1-c1ccc([C@H](C)NC(=O)[C@@H]2C[C@@H](O)CN2C(=O)[C@@H](NC(=O)COC[C@@H](O)CCOc2ccc(-c3ccc(N4C(=S)N(c5ccc(C#N)c(C(F)(F)F)c5)C(=O)C4(C)C)cc3)cc2)C(C)(C)C)cc1 [Example 575]
Dmax (VCaP, read-out: VCaP Dmax (%)): > 71% | DC50 (read-out: VCaP DC50; VCaP cells; Table 35): < 50 nM

Compound: Cc1ncoc1-c1ccc(CNC(=O)[C@@H]2C[C@@H](O)CN2C(=O)[C@@H](NC(=O)COCCCCOc2ccc(-c3ccc(N4C(=S)N(c5ccc(C#N)c(C(F)(F)F)c5)C(=O)C4(C)C)cc3F)cc2)C(C)(C)C)cc1 [Example 399]
Dmax (VCaP, read-out: VCaP Dmax (%)): > 71% | DC50 [6]: < 50 nM

Compound: Cc1ncsc1-c1ccc(CNC(=O)[C@@H]2C[C@@H](O)CN2C(=O)[C@H](C(C)C)N2CC(OCCOCCOc3ccc(N4C(=S)N(c5ccc(C#N)c(C(F)(F)F)c5)C(=O)C4(C)C)cc3)=CC2=O)cc1 [Example 314]
Dmax (VCaP, read-out: VCaP Dmax (%)): < 25% | DC50 [6]: 51 to 500 nM

Compound: CNC(=O)c1ccc(CNC(=O)[C@@H]2C[C@@H](O)CN2C(=O)[C@@H](NC(=O)COCCCCCNc2ccc(C(=O)N[C@H]3C(C)(C)[C@H](Oc4ccc(C#N)c(Cl)c4)C3(C)C)cc2)C(C)(C)C)cc1 [Example 511]
DC50 [1]: < 50 nM | Dmax [2]: 51 to 70%

Next, values leading:

DC50 [3]: > 501 nM | Dmax [4]: < 25%
Compound: Cc1ncsc1-c1ccc(CNC(=O)[C@@H]2C[C@@H](O)CN2C(=O)[C@H](C(C)C)N2Cc3ccc(N4CCN(CCCc5ccc(C(=O)N[C@H]6C(C)(C)[C@H](Oc7ccc(C#N)c(C(F)(F)F)c7)C6(C)C)cc5)CC4)cc3C2=O)cc1 [Example 762, (2S,4R)-1-((S)-2-(6-(4-(3-(4-(((1r,3r)-3-(4-cyano-3-(trifluoromethyl)phenoxy)-2,2,4,4-tetramethylcyclobutyl)carbamoyl)phenyl)propyl)piperazin-1-yl)-1-oxoisoindolin-2-yl)-3-methylbutanoyl)-4-hydroxy-N-(4-(4-methylthiazol-5-yl)benzyl)pyrrolidine-2-carboxamide]

DC50 [1]: > 501 nM | Dmax [2]: 51 to 70%
Compound: Cc1ncsc1-c1ccc(CNC(=O)[C@@H]2C[C@@H](O)CN2C(=O)[C@@H](NC(=O)COCCCCCNc2ccc(C(=O)N[C@H]3C(C)(C)[C@H](Oc4ccc(C#N)c(Cl)c4)C3(C)C)cc2)C(C)(C)C)nc1 [Example 538]

DC50 [1]: < 50 nM | Dmax [2]: > 71%
Compound: CC(C)c1ncsc1-c1ccc(CNC(=O)[C@@H]2C[C@@H](O)CN2C(=O)[C@@H](NC(=O)COCCCCCNc2ccc(C(=O)N[C@H]3C(C)(C)[C@H](Oc4ccc(C#N)c(Cl)c4)C3(C)C)cc2)C(C)(C)C)cc1 [Example 556]

DC50 [1]: < 50 nM | Dmax [2]: 51 to 70%
Compound: Cc1ncsc1-c1ccc([C@H](C)NC(=O)[C@@H]2C[C@@H](O)CN2C(=O)[C@@H](NC(=O)COc2ccc(OC3CCC(Oc4ccc(C(=O)N[C@H]5C(C)(C)[C@H](Oc6ccc(C#N)c(Cl)c6)C5(C)C)cc4)CC3)nc2)C(C)(C)C)cc1 (stereo partly drawn) [Example 433]

DC50 [3]: < 50 nM | Dmax [4]: > 71%
Compound: Cc1ncsc1-c1ccc([C@H](CO)NC(=O)[C@@H]2C[C@@H](O)CN2C(=O)[C@@H](NC(=O)COCCN2[C@H](C)CN(c3ccc(C(=O)N[C@H]4C(C)(C)[C@H](Oc5ccc(C#N)c(Cl)c5)C4(C)C)cn3)C[C@@H]2C)C(C)(C)C)cc1 [Example 826, N-((1r,3R)-3-(3-chloro-4-cyanophenoxy)-2,2,4,4-tetramethylcyclobutyl)-6-((3S,5R)-4-(2-(2-(((S)-1-((2S,4R)-4-hydroxy-2-(((R)-2-hydroxy-1-(4-(4-methylthiazol-5-yl)phenyl)ethyl)carbamoyl)pyrrolidin-1-yl)-3,3-dimethyl-1-oxobutan-2-yl)amino)-2-oxoethoxy)ethyl)-3,5-dimethylpiperazin-1-yl)nicotinamide]

DC50 [1]: < 50 nM | Dmax [2]: > 71%
Compound: Cc1ncsc1-c1ccc([C@H](C)NC(=O)[C@@H]2C[C@@H](O)CN2C(=O)[C@@H](NC(=O)COCCN2CCN(c3ccc(C(=O)N[C@H]4C(C)(C)[C@H](Oc5ccc(C#N)c(Cl)c5)C4(C)C)cc3)CC2)C(C)(C)C)cc1 [Example 438]

DC50 [3]: < 50 nM | Dmax [5]: > 71%
Compound: Cc1ncsc1-c1ccc([C@H](C)NC(=O)[C@@H]2C[C@@H](O)CN2C(=O)[C@@H](NC(=O)CO[C@@H](C)CN2CCN(c3ccc(C(=O)N[C@H]4C(C)(C)[C@H](Oc5ccc(C#N)c(Cl)c5)C4(C)C)cc3)CC2)C(C)(C)C)cc1 [Example 639, (1S,4R)-1-((S)-2-(2-(((S)-1-(4-(4-(((1r,3S)-3-(3-chloro-4-cyanophenoxy)-2,2,4,4-tetramethylcyclobutyl)carbamoyl)phenyl)piper-azin-1-yl)propan-2-yl)oxy)acetamido)-3,3-dimethylbutanoyl)-4-hydroxy-N-((S)-1-(4-(4-methylthiazol-5-yl)phenyl)ethyl)pyrrolidine-2-carboxamide]
